Assay: Dynamic vapor sorption (DVS) isotherm analysis, with XRPD before and after DVS
Assay type: physicochemical
Conditions: for change of crystalline form after DVS (XRPD): XRPD before and after DVS; for hygroscopicity rating by DVS isotherm analysis: rating in words, based on uptake at 80% RH

change of crystalline form after DVS (XRPD)	hygroscopicity by DVS isotherm analysis (uptake at 80% RH) [%]	hygroscopicity rating by DVS isotherm analysis	SMILES
some change of crystalline form	26.42	very hygroscopic	CCN1CCN(Cc2ccc(Nc3ncc(F)c(-c4cc(F)c5nc(C)n(C(C)C)c5c4)n3)nc2)CC1.O=S(=O)(O)O [Compound 1⋅H2SO4 (1:1; Form A)]
some change of crystalline form	3.16	hygroscopic	CCN1CCN(Cc2ccc(Nc3ncc(F)c(-c4cc(F)c5nc(C)n(C(C)C)c5c4)n3)nc2)CC1.O=P(O)(O)O [Compound 1⋅H3PO4 (1:1)]
no change of crystalline form	1.67	slightly hygroscopic	CCN1CCN(Cc2ccc(Nc3ncc(F)c(-c4cc(F)c5nc(C)n(C(C)C)c5c4)n3)nc2)CC1.Cc1ccc(S(=O)(=O)O)cc1
no change of crystalline form	5.13	hygroscopic	CCN1CCN(Cc2ccc(Nc3ncc(F)c(-c4ccc5nn(C)c(C(C)C)c5c4)n3)nc2)CC1 [freebase of 1 (Form D)]
no change of crystalline form	3.64	hygroscopic	CCN1CCN(Cc2ccc(Nc3ncc(F)c(-c4cc(F)c5nc(C)n(C(C)C)c5c4)n3)nc2)CC1.Cl [1⋅HCl (1:1; Form A)]

Reference: patent publication US12595246B2, “Crystalline and amorphous forms of N-(5-((4-ethylpiperazin-1-yl)methyl)pyridine-2-yl)-5-fluoro-4-(3-isopropyl-2-methyl-2H-indazol-5-yl)pyrimidin-2-amine and its salts, and preparation methods and therapeutic uses thereof” (BETA PHARMA, INC., priority 2019, dated 2026)
